Columns and labels:
[1] = tested on: mice subjected to controlled cortical impact injury; test: Contusion volume, cresyl violet staining; assay type: in vivo; settings: day 28; for contusion volume: vehicle 13.5±4.0
Protocol: All animal procedures were approved by the Animal Research Committee at Cheng Hsin General Hospital (Animal permit number […] 101-08), and all procedures complied with the Guide for the Care and Use of Laboratory Animals published by the US National Institutes of Health (NIH Publication No. 85-23, revised 1996). Animals were housed under a 12-h light/dark cycle and at constant temperature (21-25°C) and humidity (45-50%). They were allowed free access to pellet chow and water. TBI in mice was induced by a CCI injury model as previously described. Briefly, 8-week-old male C57BL/6 mice (weighing 22-25 g) were anesthetized through the use of intraperitoneal injection of sodium pentobarbital (65 mg/kg; Rhone Merieux, Harlow, UK) and placed in a stereotaxic frame. A 5 mm craniotomy was performed over the right parietal cortex, centered on the coronal suture and 0.1 mm lateral to the sagittal suture, and injury to dura was avoided. Injury was induced using a pneumatic piston with a rounded metal tip (2.5 mm diameter) that was angled 22.5° to the vertical so that the tip was perpendicular with the brain surface at the center of the craniotomy. The impact, with a velocity of […] and a deformation depth of 2 mm below the dura, was applied. The bone flap was immediately replaced and sealed, and the scalp was sutured. Body temperature was monitored throughout the surgery by a rectal probe; temperature was maintained at 37.0±0.5°C using a heated pad. Mice were placed in a heated cage to maintain body temperature, while recovering from anesthesia. Sham-operated mice underwent the same procedure as injured mice, but without CCI. Three sets of experiments were performed. The first set was to investigate the protective effects of salidroside. All animals were randomized into 1 of 3 groups (sham injury, CCI + vehicle, CCI + SALD 20). […] To determine the optimal dose of salidroside, a pilot study was performed using 2 different doses (20 and 50 mg/kg) administered 10 min after injury, and neurological deficits and tissue damage were evaluated as the main outcomes. […]

[2] = tested on: mice subjected to controlled cortical impact injury; test: TUNEL staining of apoptotic cells; assay type: in vivo; settings: 20 mg/kg ip 10 min after CCI; day 1; vehicle 57.8±6.4%; P<0.01
Protocol: All animal procedures were approved by the Animal Research Committee at Cheng Hsin General Hospital (Animal permit number […] 101-08), and all procedures complied with the Guide for the Care and Use of Laboratory Animals published by the US National Institutes of Health (NIH Publication No. 85-23, revised 1996). Animals were housed under a 12-h light/dark cycle and at constant temperature (21-25°C) and humidity (45-50%). They were allowed free access to pellet chow and water. TBI in mice was induced by a CCI injury model as previously described. Briefly, 8-week-old male C57BL/6 mice (weighing 22-25 g) were anesthetized through the use of intraperitoneal injection of sodium pentobarbital (65 mg/kg; Rhone Merieux, Harlow, UK) and placed in a stereotaxic frame. A 5 mm craniotomy was performed over the right parietal cortex, centered on the coronal suture and 0.1 mm lateral to the sagittal suture, and injury to dura was avoided. […] Body temperature was monitored throughout the surgery by a rectal probe; temperature was maintained at 37.0±0.5°C using a heated pad. […] To determine the optimal dose of salidroside, a pilot study was performed using 2 different doses (20 and 50 mg/kg) administered 10 min after injury, and neurological deficits and tissue damage were evaluated as the main outcomes. […]

[3] = tested on: primary cultured cortical neurons; test: MTT cell viability after in vitro neuronal stretch injury; assay type: cell-based, C57BL/6 mice; settings: added immediately after injury, MTT at 24 h, stretch alone 61.8±1.5%
Protocol: All culture medium supplies were from Invitrogen (Invitrogen, Carlsbad, CA, USA). Cortical neuronal cells were prepared from embryonic day 15.5 C57BL/6 mice and cultured in serum-free conditions as previously described. Briefly, the cortices were isolated and digested in 0.5 mg/mL papain at 37°C for 15 min, followed by dissociation in Hibernate-A medium (containing B27 supplement) by aspirating trituration. The cells were then plated onto poly-L-lysine-coated 6-well silastic culture plates (Flexcell International Corporation, Hillsborough, NC, USA) at a density of 5×10^4 cells/cm^2 and maintained in Neurobasal medium supplemented with B27, 10 units/mL penicillin, […], and 0.5 mg/mL glutamine. Four days after plating, 50% of the medium was removed and replaced with fresh medium. The cells were cultured at 37°C in a humidified tri-gas incubator (5%O2, 90% N2, and 5% CO2) and were used at day 10 in vitro. The cortical cultures contain mostly neurons and there were <2% of glia cells, as determined by immunohistochemical staining.
Cultures were stretched by rapid deformation of the silastic culture plates (Flexplates), using the Cell Injury Controller II (Custom Design and Fabrication; Virginia Commonwealth University, Richmond, VA, USA) as previously described. This device uses a regulated flow of compressed gas to rapidly pressurize cells cultured on flexible substrates, causing a radial stretch injury. […] This stimulus intensity corresponds to the “moderate stretch” [62]. The primary cultured neurons were treated with 0.1, 1, 10, 20, and 50 µM salidroside, respectively, immediately following injury. The cortical neurons cultured in plain medium served as control. Cell viability analysis was performed 24 h after injury.
The cell viability was determined by assessing the degree of MTT reduction. Briefly, cells were incubated at 37°C for 2 h with MTT (0.5 mg/mL final concentration; Sigma-Aldrich; St. Louis, MO, USA). Afterwards, a solution of anhydrous isopropanol, HCl (0.1 N), and 0.1% Triton X-100 was added for the dissolution of formazan crystal. The optical density was determined at 570 nm using a microplate reader. Cell viability was expressed as a percentage of the control culture. The experiments were repeated 4 times with different batches of primary cultures.

OC[C@H]1O[C@@H](OCCc2ccc(O)cc2)[C@H](O)[C@@H](O)[C@@H]1O [SALD, salidroside]
contusion volume as % of the vehicle group ([1]; 20 mg/kg ip 10 min after CCI): 73.8%
contusion volume ([1]; 20 mg/kg ip 10 min after CCI, P<0.05): 9.9±1.1 mm^3
contusion volume ([1]; 50 mg/kg ip 10 min after CCI, P>0.05): 11.7±3.2 mm^3
TUNEL-positive cells (TUNEL-stained nuclei/DAPI-stained nuclei) [2]: 31.0±6.4%
cell survival after stretch injury (relative to control) ([3]; 0.1 µM, P>0.05): 65.3±1.3%
cell survival after stretch injury (relative to control) ([3]; 1 µM, P<0.001): 72.5±1.6%
cell survival after stretch injury (relative to control) ([3]; 10 µM, P<0.001): 90.9±1.4%
cell survival after stretch injury (relative to control) ([3]; 20 µM, P<0.001): 91.4±1.4%
cell survival after stretch injury (relative to control) ([3]; 50 µM, P<0.001): 90.5±1.4%

From article PMC3454376, “Salidroside Improves Behavioral and Histological Outcomes and Reduces Apoptosis via PI3K/Akt Signaling after Experimental Traumatic Brain Injury” (PLoS ONE, 2012)
